Tests used:
[1] = system: diet-induced obese (60% HF diet) WT (fl/fl) and LS-MPC2-/- mice; test: Markers of liver injury (plasma ALT, qPCR gene expression) in obese WT and LS-MPC2-/- mice after a single dose; type: in vivo, mouse
Procedure: (§1) 8 week old WT and LS-MPC2−/− mice were fed a diet of 60% fat (Research Diets D12492) for 20 weeks to induce obesity and insulin resistance. Intraperitoneal glucose tolerance tests (GTT) were performed after a 4 h fast by injection of 1 g/kg D-glucose in saline i.p. to assess glucose tolerance. 3 days after the initial GTT, mice were randomized to receive a single gavage of either vehicle (1% CMC, 0.01% Tween-80) or 30 mg/kg MSDC-0602K. Plasma insulin was measured by Singulex assay and plasma ALT levels were measured by commercially-available kits (Teco Diagnostics). qPCR was performed by isolation of total RNA with RNA-Bee and reverse transcription with a high-capacity cDNA synthesis kit (Invitrogen). qPCR was performed on an Applied Biosystems real-time thermocycler.

[2] = system: diet-induced obese (60% HF diet) WT (fl/fl) and LS-MPC2-/- mice; test: Intraperitoneal glucose tolerance test and plasma insulin in diet-induced obese WT and LS-MPC2-/- mice after a single dose; type: in vivo, mouse; conditions: for glucose tolerance (GTT): 20 h after a single dose of 30 mg/kg; for plasma insulin: single dose 30 mg/kg
Procedure: as §1

[3] = system: uncoupling protein 1 (UCP1); test: UCP1 expression (Western blot) in brown adipose precursors in vitro, with T3; type: cell-based; conditions: added to T3 0 to 30 nM; sensitivity and magnitude of response; FIG. 14
Excerpt: FIG. 14. Is a graphic representation of the data of thyroid hormone with MSDC-0602 in vitro.
The addition of the thyroid agonist not only increases the maximum response. […] The response measured here is increased expression of the uncoupling protein 1 (UCP1) on Western blot—a measure of differentiation of brown adipose cells.

serum miRNAs = test: Serum miRNA sequencing in NASH (HTF-C) diet mice; type: in vivo, mouse
Procedure: To begin evaluating the exosome cargo of MSDC-0602K-treated mice, WT mice were fed with either a low fat (LF) control diet (Research Diets D09100304) or high trans-fat, fructose, cholesterol (HTF-C) diet composed of 40% trans-fat, 20% fructose, 2% cholesterol (Research Diets D09100301).
Total RNA was isolated from 400 μL of serum and small RNA sequencing was performed by adapter ligation, cDNA synthesis and size selection of 145-160 base pairs. Sequencing was then performed on an Illumina HiSeq3000.

pancreatic islets = test: Pancreas histology and IHC of ZDSD/Pco rats (insulin, Ki67, PDX-1, Bcl2); type: in vivo, rat; conditions: pancreas at sacrifice; high fat diet; oral MSDC-0602 30 mg/kg, exenatide s.q. 1 μg
Procedure: (§2) Male ZDSD/Pco rats were maintained on standard chow 5008 (Purina) until treatment groups were switched to the high fat diet (Purina 5SCA). […] Control rats (given both vehicles) were maintained on the normal diet and the treatment groups were switched to the high fat diet as indicated. Glucose and insulin were measured weekly from tail vein samples. On day 36 an oral glucose tolerance test (OGTT); 2 g/kg) was conducted after a 16 hour fast. Glucose samples were taken at 0, 30, 60, 90, and 120 minutes; insulin was measured at 0 and 30 minutes and the change at 30 minutes is shown. Data are mean and SE; N=10. At sacrifice, the pancreas was fixed in formalin and shipped to MSU for histology and IHC. A range of anti-bodies were used to identify and quantify the presence of insulin, Ki67, collagen, CD3 lymphocytes, PDX-1 and Bcl2. An Image-Pro system was used with Image J to quantify the degree of positive staining. […] Five matched groups of ZDSD/Pco rats were selected at 14 weeks of age and then treated for 6 weeks. […] At sacrifice, the pancreas was removed, fixed, and stained for insulin, PDX1, and Ki67, as an index of proliferation.

[4] = target: T1, mitochondrial pyruvate carrier (MPC) (Homo sapiens, UniProt O95563+Q9Y5U8); conditions: cited from earlier work
T1 sequence (Q9Y5U8 1-109): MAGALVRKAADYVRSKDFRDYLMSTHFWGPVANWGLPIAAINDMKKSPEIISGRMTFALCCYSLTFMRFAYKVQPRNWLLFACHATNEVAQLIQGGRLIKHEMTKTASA
T1 sequence (O95563 1-127): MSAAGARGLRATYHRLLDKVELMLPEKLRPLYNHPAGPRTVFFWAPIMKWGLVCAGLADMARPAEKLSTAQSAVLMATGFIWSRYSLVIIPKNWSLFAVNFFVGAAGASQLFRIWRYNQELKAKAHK

[5] = system: ZDSD/Pco rats challenged with a high fat diet; test: ZDSD/Pco rats on high fat diet: circulating glucose, insulin, OGTT; type: in vivo, rat; conditions: over 4 week treatment, compared to group 2 (control treatment on high fat diet); oral MSDC-0602 30 mg/kg, exenatide s.q. 1 μg
Procedure: as §2

[6] = phase 2 clinical trial, cited from earlier work
mouse model of NASH = conditions: effects require MPC expression in hepatocytes; cited from earlier work

COc1cccc(C(=O)COc2ccc(CC3SC(=O)[N-]C3=O)cc2)c1.[K+] (stereo not shown) [MSDC-0602K]
liver injury, major acute effects ([1]; acute dosing, effects require hepatocyte MPC): attenuate liver injury
glucose tolerance (GTT) ([2]; WT mice): improves glucose tolerance
increase of UCP1 expression, interaction with thyroid hormone [3]: synergistic

COc1cccc(C(=O)COc2ccc(CC3SC(=O)NC3=O)cc2)c1 (stereo not shown) [MSDC-0602]
serum miRNAs altered in NASH model (serum miRNAs; HTF-C diet containing 331 ppm MSDC-0602, heat map of ~230 miRNAs): largely corrected
serum miRNAs upregulated in NASH (mmu-miR-29c-3p, mmu-miR-802-3p, mmu-miR-802-5p) (serum miRNAs; HTF-C diet, FIGS. 13A-13C): down
serum miRNAs down in NASH (mmu-miR-127-3p, mmu-miR-129-2-3p, mmu-miR-615-3p) (serum miRNAs; HTF-C diet, FIGS. 13D-13F): up
serum miRNAs mmu-miR-129-5p, mmu-miR-205-5p (serum miRNAs; HTF-C diet, FIGS. 13G-13H): large effect
insulin staining (pancreatic islets): increased
number of islet cells (pancreatic islets): increased
plasma ALT and liver injury gene expression, response to acute treatment ([1]; LS-MPC2-/- mice, single dose): refractory
plasma ALT concentrations ([1]; WT mice, single dose, FIG. 11A): decreased
gene expression for hepatic stellate cell activation and fibrotic scar formation ([1]; WT mice, single dose, FIG. 11B): decreased
glucose tolerance (GTT) ([2]; LS-MPC2-/- mice): no improvement in glucose tolerance
plasma insulin ([2]; LS-MPC2-/- mice): decreased
glucose tolerance (GTT) ([2]; WT mice): improved glucose tolerance
plasma insulin ([2]; WT mice): decreased
MPC binding and modulation [4]: binds and modulates
glucose levels [5]: significantly reduced
increase of UCP1 expression, interaction with thyroid hormone [3]: synergy (much larger response)
circulating glucose ([6]; FIG. 1A): lowered
circulating insulin ([6]; FIG. 1B): lowered
liver damage (mouse model of NASH): prevents and reverse liver damage
